Consider one compound from patent US12702667B2, “Focal adhesion kinase inhibitor as a therapeutic agent in diabetes” (University of Pittsburgh—Of the Commonwealth System of …, priority 2017, dated 2026).

The structures appear in SMILES notation. Entries after “also recorded” stand apart in the source; their conditions may differ.

Assay [1] concerns pancreatic acinar cells. As to the kind of experiment: Acinar lineage tracing (tomato-red label, immunofluorescence) in E1aCreERT2;R26-CAG^Tomato mice treated with FAKi. Format: in vivo. From the text: Rosa26^CAGTomato (B6.Cg-Gt(Rosa)26Sortm9(CAG-tdTomato)Hze) (Madisen et al., 2010), FAK^fl/fl (Cai et al., 2012), and wild type C57bl/6 mice were purchased from The Jackson Laboratory (Bar Harbor, ME). PdxCre (Criscimanna et al., 2011; Hingorani et al., 2003) mice were obtained from the Mouse Models of Human Cancer Consortium. The E1aCreERT2 strain (Criscimanna et al., 2014; Criscimanna et al., 2011) was generated as previously described (Ji, B. et al., Robust acinar cell transgene expression of CreErT via BAC recombineering, Genesis, 46, 390-395et al (2008)). The FAK-floxed strain (B6; 129X1-Ptk2tm1Lfr/Mmucd) was obtained from the Mutant Mouse Regional Resource Centers (MMRRC).
Immunofluorescence Analysis: Tissue processing, immunostaining, and quantification analysis were performed as previously described (Criscimanna et al., 2011; incorporated by reference in its entirety herein). Imaging was performed using either ZEISS Axiolmager.Z1 or ZEISS LSM 710 microscopes.
Tamoxifen treatment: E1aCreERT;R26-CAG^Tomato mice were injected intraperitoneally with 2 mg tamoxifen on two consecutive days.
(§1) FAKi treatment: FAKi (PF562271; 50 mg/kg) was given orally to mice twice a day for 3 weeks.
Cre-recombinase activity was specifically targeted to the pancreatic acinar cells and their potential progenies. […] The mouse strains are E1aCreERT2;R26-CAG^Tomato, created by crossing the E1aCreERT2 into R26^Tomato mice. Pancreatic acinar cells are exclusively tomato-positive. Mice were treated with PF562271 FAKi. The indicated area in FIG. 2B highlights tomato-negative endocrine islet of Langerhans.

In assay [2] the test system is STZ-treated E1aCreERT2; R26^Tomato mice. As to the kind of experiment: Induced diabetes mouse model (streptozotocin), blood glucose and islet immunostaining after FAKi treatment. The class given is in vivo. Conditions: for acinar-derived, insulin-producing cells among beta cells that survived STZ treatment: 7 weeks after STZ treatment and 3 weeks after FAKi treatment. As for the experimental part:
as §1
E1aCreERT2; R26^Tomato mice were treated with streptozotocin (STZ), a widely used compound that kills β-cells and, thus, induces diabetes in mice. […] Thus, in the DMSO-treated cohort, recovery was detected in 3/10 mice. […]
The mice were treated for two additional weeks following blood glucose normalization. The bar embedded in the graph of FIG. 5 indicates the duration of FAKi treatment. […] FAKi (50 mg/kg) was given orally to mice twice a day for 3 weeks.

For `CN(c1ncccc1CNc1nc(Nc2ccc3c(c2)CC(=O)N3)ncc1C(F)(F)F)S(C)(=O)=O.O=S(=O)(O)c1ccccc1` [PF562271], the “conversion of acinar cells into insulin-producing cells (tomato-red labeled insulin-expressing cells)” value in assay [1] (50 mg/kg orally twice a day for three weeks) was “induces conversion of acinar cells into insulin-producing cells”. Besides, the “Glut2 expression of the acinar-derived insulin-positive cells” value in assay [1] (FAKi treated) is reported as “also expressed Glut2”. Besides, in assay [1] (treatment for three weeks), the “amylase expression of the acinar-derived insulin-positive cells” value is “no longer express amylase; also recorded: no longer expressed amylase” and the “location of the acinar-derived insulin-positive cells” value is recorded as “embedded within preexisting islets”. Further, the “acinar-derived, insulin-producing cells among beta cells that survived STZ treatment” value in assay [2] is listed as “could be detected among pre-existing beta-cells”. The “acinar-derived, insulin-producing cells among beta cells that survived STZ treatment” value in assay [2] (listed as FAKi) was “could be detected among pre-existing beta cells”. In addition, the “mice whose blood glucose levels decreased to normal levels” value in assay [2] (STZ-treated mice, 50 mg/kg orally twice a day for 3 weeks, DMSO cohort recovery 3/10) is on record as 9/10. Further, the “blood glucose after FAKi treatment ceased” value in assay [2] (STZ-treated mice, after 3 weeks of 50 mg/kg orally twice a day) is on record as “remained at normal levels up to a month”. In addition, the blood glucose entry in assay [2] (STZ-treated mice, one week after FAKi treatment (mice treated for 3 weeks)) is given as “decrease in blood glucose to normal levels”.
